{"source": "patent US20220370468A1", "about": "“Methods of treating sleep disorders associated with pain” (Astellas Pharma Global Development, Inc., priority 2019, published 2022)", "key": {"[1]": {"target": "Kca3.1 potassium ion channel (Homo sapiens, UniProt O15554)", "assay": "Kca3.1 channel activity (stated mechanism)", "assay_type": "biochemical"}, "[2]": {"tested_on": "patients with fibromyalgia", "assay": "Phase 2a study: Fibromyalgia Impact Questionnaire Revised (FIQR)", "assay_type": "in vivo, human", "conditions": "for FIQR total score improvement from baseline, LS mean difference versus placebo: ANCOVA", "description": "(§1) A phase 2a, randomized, double-blind, placebo-controlled, parallel group study was conducted at 24 sites in the United States to assess the analgesic efficacy and safety of the compound of Formula (I) in patients with fibromyalgia. The study consisted of the following: a screening period of up to 42 days, which included a washout period and a 7-day baseline diary run-in; a 57-day double-blind randomized treatment period with site visits at Days 1, 15, 29, and 57; and a 4-week follow-up period consisting of a clinic visit after 2 weeks and a phone call after 4 weeks. The study was carried out in accordance with the Declaration of Helsinki and approved by the relevant Institutional Review Boards. All participants provided written informed consent prior to the initiation of any study procedures.\nMale and female patients aged 18 to 80 years were included in the trial if they met the American College of Rheumatology (ACR) 1990 and 2010 fibromyalgia diagnostic criteria at screening (Wolfe et al., 1990; Wolfe et al., 2010b). The core diagnostic criteria for fibromyalgia are defined by the 1990 criteria (Wolfe et al., 1990), and while ACR has published newer criteria, the 1990 version is still commonly utilized in clinical trials. To meet ACR 1990 criteria, patients must have had widespread pain for at least 3 months, defined as the presence of pain on the right and left sides of the body, pain above and below the waist, and pain in the axial skeleton (cervical spine, anterior chest, thoracic spine, or low back) (Wolfe et al., 1990). They must also have had pain in at least 11 of 18 tender point sites on digital palpation performed with an approximate force of 4 kg. To meet the ACR 2010 criteria, patients needed to have a widespread pain index (WPI) score of ≥7 and a symptom severity (SS) scale score ≥5, or a WPI score 3-6 and an SS scale score ≥9 (Wolfe et al., 2010b). Symptoms must have been present at a similar level for at least 3 months and patients must have been free of any other disorder that could have explained the pain.\nEligible patients were randomized 1:1 using Interactive Response Technology to receive oral Compound of Formula (I) 15 mg (three capsules of 5 mg) or matching placebo capsules, each given once daily in the morning, with or without food, for 8 weeks.\n(§2) Secondary efficacy endpoints included the number of patients achieving a ≥30% or ≥50% reduction in mean daily average pain score assessed by NRS (0 to 10 scale) from baseline to Week 8 and end of treatment (EOT; Day 57); change from baseline to Weeks 2, 4, 8, and EOT in the FIQR function, symptoms, and overall impact subscales; and overall improvement assessed by patient global impression of change (PGIC) (Rampakakis et al., 2015) at Weeks 2, 4, 8, and EOT.\nQuestionnaires on efficacy, such as FIQR and PGIC, were completed during study visits. The FIQR captures the full spectrum of problems related to fibromyalgia and the responses to therapy, ranging from activities of daily living, overall impact, and symptoms (Bennett et al., 2009). Patients answered each question on an 11-point NRS over a recall period of the last 7 days or the last time the activity was performed (for the physical function domain if the activity was not performed within the 7-day recall period). The PGIC is a self-administered 7-point Likert scale that asks patients to evaluate their fibromyalgia relative to baseline (from “very much improved” to “very much worse”) (Rampakakis et al., 2015).\nIn FIG. 2, the change from baseline in FIQR total score is depicted. The FIQR total score represents the sum of the three sub scale scores: symptom, function, and overall impact. The symptom sub scale accounts for 50%, the function subscale accounts for 30%, and the overall impact subscale accounts for 20% of the total score. Data from double-blind period are presented as LS mean±standard error; data from follow-up period are presented as mean±standard error. […]"}, "[3]": {"tested_on": "patients with fibromyalgia", "assay": "Phase 2a randomized double-blind placebo-controlled study: mean daily average pain score (NRS)", "assay_type": "in vivo, human", "description": "as §1\nMale and female patients aged 18 to 80 years were included in the trial if they met the American College of Rheumatology (ACR) 1990 and 2010 fibromyalgia diagnostic criteria at screening (Wolfe et al., 1990; Wolfe et al., 2010b). The core diagnostic criteria for fibromyalgia are defined by the 1990 criteria (Wolfe et al., 1990), and while ACR has published newer criteria, the 1990 version is still commonly utilized in clinical trials. […]\nThe primary efficacy endpoint for pain was change from baseline to Week 8 in mean daily average pain score assessed by the Numeric Rating Scale (NRS; 0 to 10 scale). […]\nas §2"}, "[4]": {"assay": "Nonclinical studies: brain penetration and ADME profile"}, "[5]": {"tested_on": "patients with fibromyalgia", "assay": "Phase 2a study: patient global impression of change (PGIC)", "assay_type": "in vivo, human", "conditions": "15 mg once daily", "description": "as §1, with “procedures. […]” for “procedures.”\nas §2, with “EOT. […]” for “EOT.”"}}}
{"smiles": "Cc1sc2cc(Cl)ccc2c1-c1ccc(N2CCO[C@H](CNC3CCC3)C2)c(C(=O)O)c1", "note": "[Compound of Formula (I)]", "values": [{"measurement": "action on Kca3.1 potassium ion channel", "setting": "[1]", "result": "opener"}, {"measurement": "FIQR total score improvement from baseline, LS mean difference versus placebo", "setting": "[2]; EOT, LOCF imputation, P=0.050", "result": "−3.75"}, {"measurement": "FIQR overall impact subscale, LS mean difference versus placebo", "setting": "[2]; Week 4, P=0.018", "result": "−1.34"}, {"measurement": "FIQR total score reduction from baseline, LS mean difference versus placebo", "setting": "[2]; Week 4, P=0.033", "result": "−4.14"}, {"measurement": "FIQR symptoms subscale, LS mean difference versus placebo", "setting": "[2]; Week 4, P=0.039", "result": "−3.73"}, {"measurement": "FIQR function subscale, LS mean difference versus placebo", "setting": "[2]; Week 4, P=0.103", "result": "−2.97"}, {"measurement": "reduction from baseline in FIQR function, symptoms subscale, or overall impact subscale versus placebo", "setting": "[2]; baseline to Week 8", "result": "no statistically significant differences"}, {"measurement": "FIQR total score improvement from baseline, LS mean difference versus placebo", "setting": "[2]; baseline to Week 8, mBOCF imputation, P=0.036", "result": "−4.10"}, {"measurement": "FIQR total score reduction from baseline, LS mean difference versus placebo", "setting": "[2]; baseline to Week 8, MMRM analysis, P=0.093", "result": "−3.27"}, {"measurement": "responder analysis of mean daily average pain score (≥30% or ≥50% reduction) versus placebo", "setting": "[3]; 15 mg once daily", "result": "no statistically significant differences"}, {"measurement": "change from baseline in mean daily average pain score versus placebo", "setting": "[3]; Weeks 2, 6 and 7, FIG. 1", "result": "statistically significant treatment differences in favor of Compound of Formula (I)"}, {"measurement": "change from baseline in mean daily average pain score (NRS 0-10), primary endpoint", "setting": "[3]; baseline to Week 8, 15 mg oral once daily, placebo −1.26", "result": "−1.60"}, {"measurement": "brain penetration", "setting": "[4]; nonclinical", "result": "poor brain penetration"}, {"measurement": "absorption, distribution, metabolism, and excretion (ADME) profile", "setting": "[4]; nonclinical studies", "result": "acceptable"}, {"measurement": "overall patient improvement assessed by PGIC versus placebo", "setting": "[5]", "result": "no statistically significant differences"}]}
